Entries after “also recorded” stand apart in the source; their conditions may differ.
Tests used:
[1] = test system: GM3; assay: GM3 expression in HEKs (flow cytometry / immunofluorescence with anti-GM3 antibody); type: cell-based, human; settings: for GM3 expression (in words): GCS inhibitor, M154 medium and glucose-supplemented medium
Method: A. HEKs were treated for 96 h with 0-100 pM TNF-α in complete […] medium and GM3S expression determined by qPCR. B. GM3 was quantified by flow cytometry with anti-GM3 antibody after 0-100 pM TNF-α for 96 h. C, D. HEKs were treated with 12 mM supplemental glucose (C) or in […] medium alone (D) for 72 h and GM3 was detected with anti-GM3 antibody by immunofluorescence. […] Changes in GM3 expression by immunofluorescence with anti-GM3 antibody show efficacy of siRNA- and DNA-Au NPs with 60-72 h incubation. […] C. […] A, B=routine immunofluorescence; C, D and inset of D=confocal microscopy. Bar=14 μm.

[2] = test system: ceramides; assay: Ceramide detection with anti-C2 Cer antibody (TLC immunostaining, ELISA) in HEKs; type: cell-based, human; settings: TLC immunostaining and ELISA
[3] = test system: HEKs; assay: HEK proliferation (WST assay); type: cell-based, human; settings: with or without 12 mM glucose, up to 5 days
Method: (§1) A. KO and WT mouse KCs, grown in CNT07 medium, were treated with and without 12 mM glucose (Glu) for 72 h, and then plated into 96-well plates. Proliferation was measured by WST assay (Clontech) in the continued presence or absence of Glu. B. Mouse KCs were treated as above, then plated at confluence into Col I-coated 24-well plates in the presence of mitomycin C. Two hours after plating, a scratch was made and migration monitored. Migration was decreased by Glu, but was faster in the KO cells treated with Glu than with vehicle. […] A. HEKs were treated as described in FIG. 7 for mouse KCs and proliferation was measured. […] B. HEKs were treated and scratch assays performed as in FIG. 7. […] C. HEKs were treated with Glu and/or C9, but starved during the last 18 h. Cells were plated on the top of Col I-coated Boyden inserts in supplement-free medium, while the lower level was filled with the same medium with and without insulin (5 μg/ml) or IGF-1 (100 ng/ml) (Haase et al. J Cell Sci 2003; 116:3227-38.; herein incorporated by reference in its entirety). After 18 h, HEKs on the bottom surface were stained and counted. […] D-G. After their incubation in Glu and/or C9, HEKs were plated onto Col I-coated glass dishes and, 2 h later, single cells were imaged every 2 mins over a 2 h period using a Biostation phase contrast microscope (Nikon). […]

[4] = test system: HEKs; assay: HEK scratch migration assay; type: cell-based, human; settings: mitomycin C, with or without glucose
Method: as §1

[5] = test system: HEKs; assay: HEK chemotaxis, Col I-coated Boyden inserts; type: cell-based, human; settings: supplemental Glu, 18 h, with or without insulin 5 μg/ml or IGF-1 100 ng/ml
Method: (§2) A. HEKs were treated as described in FIG. 7 for mouse KCs and proliferation was measured. […] B. HEKs were treated and scratch assays performed as in FIG. 7. […] C. HEKs were treated with Glu and/or C9, but starved during the last 18 h. Cells were plated on the top of Col I-coated Boyden inserts in supplement-free medium, while the lower level was filled with the same medium with and without insulin (5 μg/ml) or IGF-1 (100 ng/ml) (Haase et al. J Cell Sci 2003; 116:3227-38.; herein incorporated by reference in its entirety). After 18 h, HEKs on the bottom surface were stained and counted. […] D-G. After their incubation in Glu and/or C9, HEKs were plated onto Col I-coated glass dishes and, 2 h later, single cells were imaged every 2 mins over a 2 h period using a Biostation phase contrast microscope (Nikon). […] Vector maps constructed with 10 representative tracks (G) further show reversal of the impact of Glu with C9 alone (which was approximately the same as with growth factors).

[6] = test system: HEKs; assay: HEK single live cell imaging (Biostation); type: cell-based, human; settings: Glu-treated HEKs
Method: as §2

[7] = test system: p-cofilin; assay: p-cofilin immunoblotting in HEKs; type: cell-based, human; settings: HEKs treated 72 h, immunoblot
Method: HEKs were treated for 72 h with or without Glu, C9, Glu+C9 (A), or with sense DNA-Au NPs or the hybrid GM2/GD2S and GD3S antisense-Au NPs (B). Immunoblotting of cell lysates detected p-cofilin8 ([…]), cofilin and, as a loading control, GAPDH.

[8] = test system: IGF-1R; assay: IGF-1R phosphorylation immunoblot in HEKs; type: cell-based, human; settings: HEKs 72 h, with or without Glu; IGF-1 100 ng/ml or insulin 5 μg/ml
[9] = molecular target: T1, GCS (Homo sapiens, UniProt Q16739); settings: cited from earlier work
T1 sequence (Q16739 1-394): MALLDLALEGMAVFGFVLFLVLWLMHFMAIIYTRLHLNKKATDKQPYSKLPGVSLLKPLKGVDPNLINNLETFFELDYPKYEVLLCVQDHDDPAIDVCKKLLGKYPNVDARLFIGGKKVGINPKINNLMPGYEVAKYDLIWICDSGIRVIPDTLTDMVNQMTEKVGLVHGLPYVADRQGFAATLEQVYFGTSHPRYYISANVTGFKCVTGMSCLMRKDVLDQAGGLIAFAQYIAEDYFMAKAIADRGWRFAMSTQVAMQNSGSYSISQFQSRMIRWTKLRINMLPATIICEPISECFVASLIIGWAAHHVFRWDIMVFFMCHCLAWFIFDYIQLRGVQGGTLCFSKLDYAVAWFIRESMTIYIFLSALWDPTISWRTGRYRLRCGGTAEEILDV

[10] = in animals, relative to P4; cited from earlier work
[11] = test system: IR; assay: IR phosphorylation / signaling immunoblot in HEKs; type: cell-based, human; settings: HEKs 72-96 h; 100 pM EtDOP4, 100 pM TNF-α, GM3 50 μM; insulin 5 μg/ml
Method: Cells were starved of growth factors overnight (with treatment continued), then treated for 5-60 mins (15 mins shown) with or without insulin 5 μg/ml. Cells lysates were immunoprecipitated with anti-IR polyclonal antibody and blotted with monoclonal anti-IR, PY-20, or as a loading control, actin. Membrane lysates were immunoprecipitated with IR and immunoblotted with anti-IR (top), PY-20 (second row), anti-IRS-1 (3rd row in B), or to control for loading, actin (bottom). […] Expression of IR was not affected.

[12] = test system: globotriaosylceramide; settings: patients with Fabry disease; cited from earlier work
[13] = test system: α5 integrin; settings: on fibronectin (FN); cited from earlier work
[14] = phase II trials for Gaucher disease; cited from earlier work
[15] = test system: mouse KCs; assay: Mouse KC in vitro wound (scratch) migration assay; type: cell-based; settings: WT primary mouse KCs
Method: (§3) FIGS. 13A-C show ganglioside depletion reverses glucose-induced inhibition of proliferation and in vitro wound healing. (A) Mouse KCs were cultured in standard medium (8 mM glucose) or medium supplemented with 12 mM glucose treated for 72 h, and then plated at confluence onto collagen I-coated 24-well plates in the presence of mitomycin C to prevent proliferation. Two hours after plating, a scratch was made and migration was monitored photographically during the subsequent 60 h in the continued presence or absence of glucose. (B) Quantification of wound healing shown in (A) by computerized measurements of the unfilled gap. (C) Proliferation of mouse KCs was measured by WST assay in standard or glucose-supplemented medium. In vitro proliferation, migration and motility assays. […] For proliferation assays, KCs were plated onto 96-well (2×10^3 cell/well) or 12-well (2×10^4 cell/well) plates and cell proliferation was assessed daily for 5 d by either WST assay (96-well plate) per manufacturer's instruction (Clontech, Calif.) and manual counting using a hemacytometer (12-well plate). Cell migration was assessed by in vitro wound (scratch) assays as previously described (47). […] Cell migration in complete CnT-07 medium in the presence of 4 μg/mL mitomycin was recorded photographically every 3-4 h for 60 h under an inverted phase-contrast microscope (Nikon). […]

[16] = test system: mouse KCs; assay: Mouse KC proliferation (WST assay); type: cell-based; settings: WT primary mouse KCs
Method: as §3

CCCCCCCCC(=O)N[C@H](CN1CCCC1)[C@H](O)c1ccc2c(c1)OCCO2.O=C(O)C(O)C(O)C(=O)O [C9]
reduction in GM3 expression ([1]; 1 μM C9 for 72 h, flow cytometry): 93%
GM3 expression (in words) [1]: prevents GM3 expression; also recorded: deplete GM3
ceramide level (in words) [2]: does not increase ceramides; also recorded: neither C9 nor EtDOP4 increase ceramide
proliferation (in words) [3]: greatest in cells treated with Glu and C9; also recorded: increases
migration (in words) [4]: even faster in the HEKs treated with C9+Glu than in vehicle-treated HEKs; also recorded: increases
chemotaxis (in words) [5]: increased chemotaxis of HEKs exposed to supplemental Glu
net displacement (reflecting persistence) ([6]; at 2 h): significantly increased
total distance (reflecting velocity) ([6]; at 2 h): significantly increased
cell polarity (in words) ([6]; imaged over 2 h): increased cell polarity
phosphorylation of cofilin (in words) [7]: decrease p-cofilin
IGF-1R phosphorylation (in words) [8]: phosphorylates IGF-1R, including in the presence of supplemental glucose; also recorded: reverses the glucose-induced suppression of IGF-1R activation
potency at inhibiting GCS relative to P4 [9]: somewhat less potent
metabolic and tolerability profile [10]: better metabolic and tolerability profile

CCCCCCCCCCCCCCCC(=O)N[C@H](CN1CCCC1)[C@H](O)c1ccc2c(c1)OCCO2 [EtDOP4, D-threo-EtDO-P4]
GM3 expression (in words) [1]: deplete GM3
ceramide level (in words) [2]: neither C9 nor EtDOP4 increase ceramide
proliferation (in words) [3]: increases
migration (in words) [4]: increases
IR signaling / IR phosphorylation (in words) [11]: rescues the suppression of TNF-α of IR phosphorylation
accumulation of globotriaosylceramide [12]: decrease the accumulation of globotriaosylceramide

GT1b
KC migration [13]: inhibit KC migration specifically on fibronectin (FN)

IGF-1: insulin-like growth factor 1
phosphorylation of cofilin (in words) [7]: decrease p-cofilin

TNF-α
increase in membrane-based GM3 expression ([1]; 0-100 pM TNF-α for 96 h, flow cytometry): 10 fold
IR signaling / IR phosphorylation (in words) [11]: suppresses IR signaling

eliglustat tartrate
toxicity [14]: showed little toxicity

insulin: growth factor, 5 μg/ml
phosphorylation of cofilin (in words) [7]: decrease p-cofilin

lactosylceramide [LacCer]
migration (in words) [15]: slightly decreased
proliferation (in words) [16]: slightly decreased
